These results are taken from patent US12723055B2, “Phosphoantigen prodrug compounds” (priority 2018, dated 2026).

One data set deals with human Vγ9/Vδ2+ T cells. The data set is described as follows: Activation of human Vγ9/Vδ2+ T cells in PBMC (CD69 and CD25 upregulation, flow cytometry). It counts as cell-based. The following applies: for Vγ9/Vδ2 T-cell activation potency (in words): human PBMC from healthy donors, 18-20 h, CD69/CD25, compared with HMBP phosphate ProPAgens or HMBPP; for EC50: human PBMC, 18 hr incubation, CD69 and CD25 upregulation. How it is done: FIG. 7. Activation of human Vγ9/Vδ2^+ T cells by HMBP phosphonate ProPAgens 4d and 9d. Human peripheral blood mononuclear cells (PBMC) were incubated with the indicated concentrations of ProPAgens 4d (left) and 9d (right) for 18 hr. TCR Vγ9/Vδ2^+ T cells were then assessed for the upregulation of cell surface markers, CD69 and CD25, as a readout to the activation of Vγ9/Vδ2^+ T cells. EC50 for both ProPAgens is ca. 8 pM (picomolar).
FIG. 8. FACS data showing the activation of human Vγ9/Vδ2^+ T cells by the HMBP phosphonate ProPAgen 4d in a dose-dependent manner. Human peripheral blood mononuclear cells (PBMC) were incubated with the indicated concentrations of ProPAgens 4d for 18 h (FIG. 8A) or 20 h (FIGS. 8B and 8C). For 20 h incubations, data was collected and analysed individually from two separate donors: Donor (1) results shown in FIG. 8B, Donor (2) results shown in FIG. 8C. TCR Vγ9/Vδ2^+ T cells were then assessed for the upregulation of cell surface markers, CD69 and CD25, as a readout to the activation of Vγ9/Vδ2^+ T cells.
FIG. 9. FACS data showing the activation of human Vγ9/Vδ2^+ T cells by the HMBP phosphonate ProPAgen 9d in a dose-dependent manner. Human peripheral blood mononuclear cells (PBMC) were incubated with the indicated concentrations of ProPAgens 9d for 18 h (FIG. 9A) or 20 h (FIGS. 9B and 9C). For 20 h incubations, data was collected and analysed individually from two separate donors: Donor (1) results shown in FIG. 9B, Donor (2) results shown in FIG. 9C. TCR Vγ9/Vδ2^+ T cells were then assessed for the upregulation of cell surface markers, CD69 and CD25, as a readout to the activation of Vγ9/Vδ2^+ T cells.
FIG. 10. […] Data was collected and analysed individually from two separate donors: Donor (1) results shown in FIG. 10A, Donor (2) results shown in FIG. 10B. TCR Vγ9/Vδ2^+ T cells were then assessed for the upregulation of cell surface markers, CD69 and CD25, as a readout to the activation of Vγ9/Vδ2^+ T cells.
Peripheral blood γδ T-cells lack appreciable levels of surface CD69 or CD25 under steady state conditions, but upon T-cell receptor (TCR) stimulation upregulate both T-cell activation markers within 72 hours. PAg responsive Vγ9/Vδ2 T-cells were then distinguished by TCR Vγ9 and Vδ2 expression and assessed for the upregulation CD69 and CD25. […]
Untreated and treated PBMCs were labelled with Zombie aqua viability dye (Biolegend) and subsequently were stained with a mixture of BV421-conjugated anti-CD3 (UCHT1, Biolegend), BV650-conjugated anti-CD8 (SK1; BD Bioscience), FITC-conjugated anti-CD25 (M-A25, Biolegend), PE-conjugated anti-CD69 (TP1.55.3; Beckman Coulter) and PE Cy5-conjugated anti-Vγ9 TCR (IMMU360, Beckman Coulter) and APC-conjugated anti-Vδ2 TCR (123R3, Miltenyi Biotech) antibodies. […] Data were analysed using FlowJo V10 software.
Background: A flow cytometer gives signals particle by particle.

A short description of data set [1]: Stability in human serum at 37° C. monitored by 31P NMR. It counts as in vitro ADME. The following applies: 12 h. How it is done:
FIG. 5: Stability of HMBP phosphonate ProPAgen 4d in human serum at 37° C. for 12 hours as monitored by ^31P NMR. Prodrug 4d (5.0 mg) was dissolved in DMSO-d6 (0.10 mL) and D2O (0.15 mL). All ^31P NMR spectra were recorded at 37° C. Initially, a ^31P NMR scan of prodrug 4d (5.0 mg) in DMSO-d6 (0.10 mL) and D2O (0.15 mL) was recorded (shown as compound 4d alone in the figure). Following this, a previously defrosted human serum (0.30 mL) was added to the NMR tube and a spectrum immediately run. Spectra were recorded at 30 min after the addition and then at even time intervals over 12 hr.
FIG. 6: Stability of HMBP phosphonate ProPAgen 9a in human serum at 37° C. for 12 hours as monitored by ^31P NMR. Same as for compound 4d above. […] In fact, these are eight peaks as predicted and two extra peaks are seen when zoomed into these peaks to make the predicted eight phosphorous peaks of such compounds.
ProPAgen 4d with human serum at 37° C. for 12 h and monitored the sample by ^31P-NMR as reported previously^11.

Data set [2] has as its system T24 urinary bladder carcinoma cell lines. The data set is described as follows: Cytotoxicity assay: specific lysis of T24 bladder cancer cells by Vγ9/Vδ2 T-cells. It counts as cell-based, human. The following applies: T24 cells incubated 4 hours with 100 pM ProPAgen 4d; effector target ratio 10:1, 18 hours; compared with 10 μM zoledronate and HMBPP. On the procedure:
FIG. 13. Cytotoxocity Assay showing potent lysis of bladder cancer cells following incubation with the HMBP phosphonate ProPAgen 4d. ProPAgen 4d mediates the specific lysis of T24 bladder cancer cells by Vγ9/Vδ2 T-cells.
Vγ9Vδ2 T cells were expanded from PBMCs in the presence of 5 μM zoledronate for 14 days and 100 U/ml IL-2 (Peprotech) was added into the media every 2-3 days, yielding ~85% Vγ9Vδ2 T cells. […] All cells were then labelled with eFluor780 viability dye and CFSE^+ eFluor780 viability dye^+ cells were measured using flow cytometry. Data were analysed using FlowJo V10.

The next data set relates to human CD8+ T cells. The data set is described as follows: Activation of human CD8+ T cells in PBMC (CD69 and CD25 upregulation, flow cytometry). It counts as cell-based. Conditions: for Concentration without CD8+ T cell activation relative to Vγ9/Vδ2 T-cell activation EC50: 1 μM versus calculated EC50; for Activation of CD8+ T cells: human PBMC, 20 h, up to 1 μM, CD69/CD25. On the procedure: FIG. 11. FACS data showing a lack of activation of human CD8+ T cells by the HMBP phosphonate ProPAgen 4d. Human PBMCs were incubated with the indicated concentrations of ProPAgen 4d for 20 h. TCR CD8^+ T cells were then assessed for the upregulation of cell surface markers, CD69 and CD25, as a readout of the activation of CD8^+ T cells. Data was collected and analysed individually from two separate donors: Donor (1) results shown in FIG. 11A, Donor (2) results shown in FIG. 11B.
FIG. 12. FACS data showing a lack of activation of human CD8+ T cells by the HMBP phosphonate ProPAgen 9d. Human PBMCs were incubated with the indicated concentrations of ProPAgen 9d for 20 h. TCR CD8^+ T cells were then assessed for the upregulation of cell surface markers, CD69 and CD25, as a readout of the activation of CD8^+ T cells. Data was collected and analysed individually from two separate donors: Donor (1) results shown in FIG. 12A, Donor (2) results shown in FIG. 12B.
Like peripheral blood γδ T-cells, peripheral blood CD8+ T-cells lack appreciable levels of surface CD69 or CD25 under steady state conditions, but upon T-cell receptor (TCR) stimulation upregulate both T-cell activation markers within 72 hours. PAg responsive CD8 T-cells were then distinguished by TCR CD8 expression and assessed for the upregulation CD69 and CD25.
Blood was obtained in the presence of a mixture of Heparin and Ethylenediaminetetraacetic acid (EDTA) as anticoagulants (2 U/ml heparin, 1.5 mM EDTA) from consented healthy donors (approved by the NRES Committee West Midlands ethical board; REC reference 14/WM/1254). Blood was then layered on a density gradient medium, lymphoprep (Stem Cell Technologies) and Peripheral blood mononuclear cells (PBMCs) were purified by gradient centrifugation. The cells were washed 2 times with Phosphate Buffered Saline (PBS), then resuspended in RPMI-1640 media supplemented with 2 mM L-glutamine, 25 mM HEPES, 1% sodium pyruvate, 50 μg/ml penicillin/streptomycin (Invitrogen) and 10% foetal calf serum.
Untreated and treated PBMCs were labelled with Zombie aqua viability dye (Biolegend) and subsequently were stained with a mixture of BV421-conjugated anti-CD3 (UCHT1, Biolegend), BV650-conjugated anti-CD8 (SK1; BD Bioscience), FITC-conjugated anti-CD25 (M-A25, Biolegend), PE-conjugated anti-CD69 (TP1.55.3; Beckman Coulter) and PE Cy5-conjugated anti-Vγ9 TCR (IMMU360, Beckman Coulter) and APC-conjugated anti-Vδ2 TCR (123R3, Miltenyi Biotech) antibodies. The percentages of CD69^+CD25^+ within CD8^+ T cell subset or Vγ9Vδ2 T-cell population were measured using flow cytometer. Data were analysed using FlowJo V10 software.

Take `C/C(=C\CCP(=O)(N[C@@H](C)C(=O)OCc1ccccc1)Oc1ccccc1)CO` (stereo partly shown) [ProPAgen 4d]: in the data set on human Vγ9/Vδ2+ T cells, the “Vγ9/Vδ2 T-cell activation potency (in words)” value was “potent Vγ9/Vδ2 T-cells activation” and the EC50 – broadly, the concentration at which the effect is half-maximal – is approximately 8 pM. In addition, the “Stability in human serum” value in data set [1] is “no degradation observed”. Also, the “T24 bladder cancer lysis by Vγ9/Vδ2 T-cells” value in data set [2] is “significant enhancement”. For the same compound, in the data set on human CD8+ T cells, the “Concentration without CD8+ T cell activation relative to Vγ9/Vδ2 T-cell activation EC50” value is on record as “approx. 100,000 times” and the “Activation of CD8+ T cells” value is “did not exhibit activation”.
In the case of `C/C(=C\CC(F)(F)P(=O)(N[C@@H](C)C(=O)OCc1ccccc1)Oc1ccccc1)CO` (stereo partly shown) [ProPAgen 9d], in the data set with human Vγ9/Vδ2+ T cells, the “Vγ9/Vδ2 T-cell activation potency (in words)” value is recorded as “potent Vγ9/Vδ2 T-cells activation” and the EC50 is approximately 8 pM. In the data set with human CD8+ T cells, the “Concentration without CD8+ T cell activation relative to Vγ9/Vδ2 T-cell activation EC50” value is on record as “approx. 100,000 times” and the “Activation of CD8+ T cells” value is “did not exhibit activation”.
